{"source": "patent US10076471B2", "about": "“Antimicrobial denture” (University of Dammam, priority 2016, dated 2018)", "origin": "cited, not measured here", "system": "Candida", "details": "against Candida"}
{"smiles": "COC1=CC(=O)c2ccccc2C1=O", "note": "[Lawsone methyl ether, 2-methoxy-1,4-napthoquinone]", "values": [{"measurement": "minimal fungicidal concentration", "value": 1.25, "unit": "µg/mL"}]}
